From ChEMBL document CHEMBL1153189, “The comparative antimalarial properties of weak base and neutral synthetic ozonides” (Bioorg Med Chem Lett, 2010)
Values after ≈ are worked out from the molar mass of the structure shown.

How the values were obtained:
[1] = tested on: Plasmodium falciparum; experiment: Antimalarial activity against chloroquine-resistant Plasmodium falciparum K1; format: functional, organism-based
[2] = tested on: Plasmodium falciparum; experiment: Antimalarial activity against chloroquine-sensitive Plasmodium falciparum NF54; format: functional, organism-based
[3] = tested on: Plasmodium berghei; experiment: Antimalarial activity against Plasmodium berghei infected in NMRI mice (Mus musculus) assessed as reduction in parasitaemia at 10 mg/kg, perorally administered 1 day post infection; format: functional; parameters: scale not given: the % may be the effect or the level left; conditions: route oral
[4] = tested on: Plasmodium berghei; experiment: Antimalarial activity against Plasmodium berghei infected in NMRI mice (Mus musculus) assessed as reduction in parasitaemia at 3 mg/kg, perorally administered for 3 days post infection; format: functional; parameters: scale not given: the % may be the effect or the level left; conditions: route oral
[5] = tested on: Plasmodium berghei; experiment: Antimalarial activity against Plasmodium berghei infected in NMRI mice (Mus musculus) assessed as survival time at 3 mg/kg, perorally administered for 3 days post infection; format: functional; conditions: route oral
[6] = tested on: Plasmodium berghei; experiment: Antimalarial activity against Plasmodium berghei infected in NMRI mice (Mus musculus) assessed as cure rat at 3 mg/kg, perorally administered for 3 days post infection measured after 30 days; format: functional; conditions: route oral
[7] = Plasma concentration in rat at 100 mg/kg, po after 5 days; format: ADME, organism-based; parameters: dose 100 mg/kg, route oral
[8] = target: Cytochrome P450 3A4 (Homo sapiens, UniProt P08684); experiment: Inhibition of CYP3A4 up to 50 uM; format: ADME
Chain of Cytochrome P450 3A4 (P08684 whole entry): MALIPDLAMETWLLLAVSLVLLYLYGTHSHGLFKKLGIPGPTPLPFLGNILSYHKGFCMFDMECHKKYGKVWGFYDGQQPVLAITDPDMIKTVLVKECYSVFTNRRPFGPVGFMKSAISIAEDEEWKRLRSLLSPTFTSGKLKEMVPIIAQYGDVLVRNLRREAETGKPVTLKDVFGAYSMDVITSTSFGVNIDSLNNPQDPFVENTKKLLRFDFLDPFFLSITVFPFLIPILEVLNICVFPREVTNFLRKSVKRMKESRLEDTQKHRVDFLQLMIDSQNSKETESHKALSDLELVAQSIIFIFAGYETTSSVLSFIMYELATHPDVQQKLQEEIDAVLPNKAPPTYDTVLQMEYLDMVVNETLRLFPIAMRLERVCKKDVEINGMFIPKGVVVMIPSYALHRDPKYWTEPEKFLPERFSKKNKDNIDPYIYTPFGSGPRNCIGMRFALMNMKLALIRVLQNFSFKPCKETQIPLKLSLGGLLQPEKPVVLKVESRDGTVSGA

[9] = target: Cytochrome P450 2C9 (Homo sapiens, UniProt P11712); experiment: Inhibition of CYP2C9 up to 50 uM; format: ADME
Chain of Cytochrome P450 2C9 (P11712 whole entry): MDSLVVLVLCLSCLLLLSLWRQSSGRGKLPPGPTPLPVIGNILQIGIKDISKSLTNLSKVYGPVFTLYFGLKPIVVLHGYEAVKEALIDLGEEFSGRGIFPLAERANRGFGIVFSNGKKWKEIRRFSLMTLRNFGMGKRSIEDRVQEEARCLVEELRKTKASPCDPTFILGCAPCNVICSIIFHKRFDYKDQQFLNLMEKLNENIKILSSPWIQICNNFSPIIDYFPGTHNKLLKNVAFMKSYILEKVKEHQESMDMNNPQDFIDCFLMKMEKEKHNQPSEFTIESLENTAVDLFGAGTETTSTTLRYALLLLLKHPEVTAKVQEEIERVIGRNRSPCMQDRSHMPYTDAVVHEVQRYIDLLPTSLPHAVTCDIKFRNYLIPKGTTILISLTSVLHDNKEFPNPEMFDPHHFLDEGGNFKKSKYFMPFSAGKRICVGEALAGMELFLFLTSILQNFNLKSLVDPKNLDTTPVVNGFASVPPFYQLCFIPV

[10] = target: Cytochrome P450 2D6 (Homo sapiens, UniProt P10635); experiment: Inhibition of CYP2D6 up to 50 uM; format: ADME
Chain of Cytochrome P450 2D6 (P10635 whole entry): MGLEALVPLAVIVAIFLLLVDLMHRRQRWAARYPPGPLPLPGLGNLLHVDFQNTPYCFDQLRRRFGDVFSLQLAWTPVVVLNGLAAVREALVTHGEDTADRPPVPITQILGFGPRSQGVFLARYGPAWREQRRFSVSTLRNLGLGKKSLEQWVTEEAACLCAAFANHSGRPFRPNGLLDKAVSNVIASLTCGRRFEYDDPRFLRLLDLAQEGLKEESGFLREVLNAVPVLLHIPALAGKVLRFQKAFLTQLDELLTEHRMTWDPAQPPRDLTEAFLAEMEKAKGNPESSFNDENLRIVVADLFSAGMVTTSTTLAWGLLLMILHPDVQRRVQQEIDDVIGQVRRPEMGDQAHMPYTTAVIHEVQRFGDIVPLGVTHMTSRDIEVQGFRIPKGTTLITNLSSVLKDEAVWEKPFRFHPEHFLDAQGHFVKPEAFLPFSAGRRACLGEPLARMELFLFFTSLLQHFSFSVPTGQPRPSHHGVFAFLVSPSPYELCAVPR

[11] = tested on: Rattus norvegicus; experiment: Plasma concentration in rat at 300 mg/kg, po after 5 days; format: ADME, organism-based; parameters: dose 300 mg/kg, route oral; conditions: in vivo, 120 h
[12] = Lipophilicity, log D at pH 7.4; format: physicochemical; conditions: buffer
[13] = Half life in Sprague-Dawley rat at 10 mg/kg, iv; format: ADME, organism-based; parameters: dose 10 mg/kg, route intravenous; conditions: Sprague-Dawley, in vivo
[14] = Volume of distribution in Sprague-Dawley rat at 10 mg/kg, iv; format: ADME, organism-based; parameters: dose 10 mg/kg, route intravenous; conditions: Sprague-Dawley, in vivo
[15] = Blood clearance in Sprague-Dawley rat at 10 mg/kg, iv; format: ADME, organism-based; parameters: dose 10 mg/kg, route intravenous; conditions: whole blood

SMILES	IC50 [1] [ng/mL]	IC50 [2] [ng/mL]	Activity [3] [%]	Activity [6] [%]	also measured
NC(=O)C(=O)NC[C@H]1CC[C@]2(CC1)OO[C@]1(O2)C2CC3CC(C2)CC1C3	0.44 (≈ 1.21 nM)	0.71 (≈ 1.95 nM)	99.5	–	–
CC(C)(N)CNC(=O)C(=O)NC[C@H]1CC[C@]2(CC1)OO[C@]1(O2)C2CC3CC(C2)CC1C3.CS(=O)(=O)O	0.4	0.54	99.9	0	Activity [4]: >99.9%; Survival [5]: 22.8 days
Cc1ccc(S(=O)(=O)O)cc1.N[C@H]1CC[C@H](NC(=O)C(=O)NC[C@H]2CC[C@]3(CC2)OO[C@]2(O3)C3CC4CC(C3)CC2C4)CC1	0.7	1.3	99.9	40	Activity [4]: >99.9%; Survival [5]: 25.2 days; concentration at 120 h [7]: 3700 ng/mL; Activity [8]: Not Active; Activity [9]: Not Active; Activity [10]: Not Active; Cp [11]: 100 mg/kg
O=C(NC[C@H]1CC[C@]2(CC1)OO[C@]1(O2)C2CC3CC(C2)CC1C3)c1ccccn1	–	–	98	–	–
CC(=O)NC[C@H]1CC[C@]2(CC1)OO[C@]1(O2)C2CC3CC(C2)CC1C3	0.63 (≈ 1.88 nM)	0.84 (≈ 2.5 nM)	98	–	–
Cc1ccc(S(=O)(=O)O)cc1.O=C(CN1CCS(=O)(=O)CC1)NC[C@H]1CC[C@]2(CC1)OO[C@]1(O2)C2CC3CC(C2)CC1C3	4.6	5.5	86	–	logD [12]: 4.5
O=C(O)C(=O)NC[C@H]1CC[C@]2(CC1)OO[C@]1(O2)C2CC3CC(C2)CC1C3	58 (≈ 159 nM)	59 (≈ 161 nM)	<40	–	–
CS(=O)(=O)CC(=O)NCC1CC[C@]2(CC1)OO[C@]1(O2)C2CC3CC(C2)CC1C3 (some centres undefined)	–	–	99.2	–	–
CS(=O)(=O)O.O=C(NC[C@H]1CC[C@]2(CC1)OO[C@]1(O2)C2CC3CC(C2)CC1C3)C(=O)NC1CCNCC1	0.56	0.79	>99.9	20	Activity [4]: >99.9%; Survival [5]: 22.4 days
CN1CCN(C(=O)NC[C@H]2CC[C@]3(CC2)OO[C@]2(O3)C3CC4CC(C3)CC2C4)CC1	0.2 (≈ 0.477 nM)	0.34 (≈ 0.81 nM)	99.9	–	–
CC(C)(N)C(=O)NC[C@H]1CC[C@]2(CC1)OO[C@]1(O2)C2CC3CC(C2)CC1C3	0.5 (≈ 1.32 nM)	0.36 (≈ 0.951 nM)	99.9	0	Activity [4]: >99.9%
CN(C)C(=O)NC[C@H]1CC[C@]2(CC1)OO[C@]1(O2)C2CC3CC(C2)CC1C3	1.1 (≈ 3.02 nM)	1.5 (≈ 4.12 nM)	99.4	–	–
Nc1n[nH]c(C(=O)NC[C@H]2CC[C@]3(CC2)OO[C@]2(O3)C3CC4CC(C3)CC2C4)n1	–	–	99.8	–	–
Cc1ccc(S(=O)(=O)O)cc1.O=C(CNCC1CC1)NC[C@H]1CC[C@]2(CC1)OO[C@]1(O2)C2CC3CC(C2)CC1C3	0.36	1.2	–	–	–
O=C(NC[C@H]1CC[C@]2(CC1)OO[C@]1(O2)C2CC3CC(C2)CC1C3)c1cccnc1	0.97 (≈ 2.43 nM)	–	99.6	–	–
C[C@H]1[C@@H](O)O[C@@H]2O[C@@]3(C)CC[C@H]4[C@H](C)CC[C@@H]1[C@@]24OO3 [ARTENIMOL]	–	–	–	–	half-life [13]: 26 min; Vd [14]: 3 L/kg; clearance [15]: 72 mL/min/kg
C[C@H]1[C@H](OC(=O)CCC(=O)O)O[C@@H]2O[C@@]3(C)CC[C@H]4[C@H](C)CC[C@@H]1[C@@]24OO3 [ARTESUNATE]	–	–	67	0	Activity [4]: 70%; logD [12]: 3.5
CCN(CC)CCCC(C)Nc1ccnc2cc(Cl)ccc12 (centres undefined) [CHLOROQUINE]	–	–	–	0	Survival [5]: 9.4 days
OC(c1cc(C(F)(F)F)nc2c(C(F)(F)F)cccc12)C1CCCCN1 (centres undefined) [MEFLOQUINE]	–	–	–	0	–
